Tests used:
Human-derived ATM kinase = biological target: T1, Human-derived ATM kinase (Homo sapiens, UniProt Q13315); experiment: ATM enzyme activity test (HTRF, phosphorylation of GST-cMyc-p53); format: biochemical
T1 construct: Eurofins (contract laboratory that ran the test)
Protocol: (§1) The compounds of the present disclosure used for experiments are all prepared in-house, and their chemical names and structural formulas are shown in the preparation examples of each compound. The experimental tests were carried out by a UK company Eurofins, and the experimental results were provided by the company. The following experimental processes were also provided by the company.
(§2) Human-derived ATM kinase was incubated in a buffer solution containing 30 nM of GST-cMyc-p53 and Mg/ATP. The concentration of Mg/ATP was determined according to different needs. The reaction was initiated by adding a Mg/ATP complex. After incubating for about 30 minutes at room temperature, a stop solution containing EDTA was added to stop the reaction. Finally, for phosphorylated p53, a detection buffer containing a d2-labeled anti-GST monoclonal antibody and an europium-labeled phosphorylated Ser15 antibody was added. Then time-resolved fluorescence mode was used to read a detection disk, and a homogeneous time-resolved fluorescence (HTRF) signal was obtained by calculating formula HTRF=10000×(Em665 nm/Em620 nm).

[1] = biological target: T2, Human-derived DNA-PK kinase (Homo sapiens, UniProt P78527); experiment: DNA-PK enzyme activity test (HTRF, phosphorylation of GST-cMyc-p53); format: biochemical
T2 construct: Eurofins (contract laboratory that ran the test)
Protocol: as §1
as §2, with “Human-derived DNA-PK” for “Human-derived ATM”, “containing 50” for “containing 30”

[2] = tested on: human lung cancer H446 cell subcutaneous xenograft tumor; experiment: In vivo efficacy of ATM inhibitors and etoposide in H446 subcutaneous xenograft model; parameters: species or system female BALB/c nude mouse; conditions: etoposide 15 mg/kg IP, ATM inhibitor 5 mg/kg PO; for Tumor volume (mm^3) / Tumor volume (mm^3) (Day 26): Mean ± SEM; for T/C (%) tumor proliferation rate / TGI (%) tumor growth inhibition rate: Day 26; for Tumor volume (mm^3) (Day 26): Day 26 after administration
Protocol: Evaluation of the in vivo efficacy of the test drug ATM inhibitor and etoposide in a BALB/c nude mouse model with human lung cancer H446 cell subcutaneous xenograft tumor via intraperitoneal or oral administration.
5% CO2 culture. Conventional digestion treatment with pancreatin-EDTA for passage was carried out twice a week. When the cell saturation was 80% to 90%, the cells were collected, counted and inoculated.
0.2 mL 5×10^6 of H446 cells (1:1 plus matrigel) were subcutaneously inoculated on the right back of each nude mouse. The grouping and administration were started when the average tumor volume reached 125 mm^3 (Table).
The experimental index was to investigate whether the tumor growth was inhibited, delayed or cured. Tumor diameter was measured twice a week with a vernier caliper. The calculation formula of tumor volume: V=0.5a×b^2, wherein a and b represented the long and short diameters of the tumor, respectively.
Tumor proliferation rate T/C (%): wherein T is the average tumor volume obtained from the last measurement (PG-D26) of the treatment group, and C is the average tumor volume obtained from the last measurement (PG-D26) of the control group.
Mean value and standard error (SEM) of the tumor volume of each group at each time point were included (specific data is shown in tables). […] The comparison between two groups was analyzed by T-test, and the comparison between three or more groups was analyzed by one-way ANOVA. If there was heterogeneity of variance, the Games-Howell test was applied. If there was homogeneity of variance, the Dunnet (2-sided) test was used for analysis.

T1 sequence (Q13315 whole entry): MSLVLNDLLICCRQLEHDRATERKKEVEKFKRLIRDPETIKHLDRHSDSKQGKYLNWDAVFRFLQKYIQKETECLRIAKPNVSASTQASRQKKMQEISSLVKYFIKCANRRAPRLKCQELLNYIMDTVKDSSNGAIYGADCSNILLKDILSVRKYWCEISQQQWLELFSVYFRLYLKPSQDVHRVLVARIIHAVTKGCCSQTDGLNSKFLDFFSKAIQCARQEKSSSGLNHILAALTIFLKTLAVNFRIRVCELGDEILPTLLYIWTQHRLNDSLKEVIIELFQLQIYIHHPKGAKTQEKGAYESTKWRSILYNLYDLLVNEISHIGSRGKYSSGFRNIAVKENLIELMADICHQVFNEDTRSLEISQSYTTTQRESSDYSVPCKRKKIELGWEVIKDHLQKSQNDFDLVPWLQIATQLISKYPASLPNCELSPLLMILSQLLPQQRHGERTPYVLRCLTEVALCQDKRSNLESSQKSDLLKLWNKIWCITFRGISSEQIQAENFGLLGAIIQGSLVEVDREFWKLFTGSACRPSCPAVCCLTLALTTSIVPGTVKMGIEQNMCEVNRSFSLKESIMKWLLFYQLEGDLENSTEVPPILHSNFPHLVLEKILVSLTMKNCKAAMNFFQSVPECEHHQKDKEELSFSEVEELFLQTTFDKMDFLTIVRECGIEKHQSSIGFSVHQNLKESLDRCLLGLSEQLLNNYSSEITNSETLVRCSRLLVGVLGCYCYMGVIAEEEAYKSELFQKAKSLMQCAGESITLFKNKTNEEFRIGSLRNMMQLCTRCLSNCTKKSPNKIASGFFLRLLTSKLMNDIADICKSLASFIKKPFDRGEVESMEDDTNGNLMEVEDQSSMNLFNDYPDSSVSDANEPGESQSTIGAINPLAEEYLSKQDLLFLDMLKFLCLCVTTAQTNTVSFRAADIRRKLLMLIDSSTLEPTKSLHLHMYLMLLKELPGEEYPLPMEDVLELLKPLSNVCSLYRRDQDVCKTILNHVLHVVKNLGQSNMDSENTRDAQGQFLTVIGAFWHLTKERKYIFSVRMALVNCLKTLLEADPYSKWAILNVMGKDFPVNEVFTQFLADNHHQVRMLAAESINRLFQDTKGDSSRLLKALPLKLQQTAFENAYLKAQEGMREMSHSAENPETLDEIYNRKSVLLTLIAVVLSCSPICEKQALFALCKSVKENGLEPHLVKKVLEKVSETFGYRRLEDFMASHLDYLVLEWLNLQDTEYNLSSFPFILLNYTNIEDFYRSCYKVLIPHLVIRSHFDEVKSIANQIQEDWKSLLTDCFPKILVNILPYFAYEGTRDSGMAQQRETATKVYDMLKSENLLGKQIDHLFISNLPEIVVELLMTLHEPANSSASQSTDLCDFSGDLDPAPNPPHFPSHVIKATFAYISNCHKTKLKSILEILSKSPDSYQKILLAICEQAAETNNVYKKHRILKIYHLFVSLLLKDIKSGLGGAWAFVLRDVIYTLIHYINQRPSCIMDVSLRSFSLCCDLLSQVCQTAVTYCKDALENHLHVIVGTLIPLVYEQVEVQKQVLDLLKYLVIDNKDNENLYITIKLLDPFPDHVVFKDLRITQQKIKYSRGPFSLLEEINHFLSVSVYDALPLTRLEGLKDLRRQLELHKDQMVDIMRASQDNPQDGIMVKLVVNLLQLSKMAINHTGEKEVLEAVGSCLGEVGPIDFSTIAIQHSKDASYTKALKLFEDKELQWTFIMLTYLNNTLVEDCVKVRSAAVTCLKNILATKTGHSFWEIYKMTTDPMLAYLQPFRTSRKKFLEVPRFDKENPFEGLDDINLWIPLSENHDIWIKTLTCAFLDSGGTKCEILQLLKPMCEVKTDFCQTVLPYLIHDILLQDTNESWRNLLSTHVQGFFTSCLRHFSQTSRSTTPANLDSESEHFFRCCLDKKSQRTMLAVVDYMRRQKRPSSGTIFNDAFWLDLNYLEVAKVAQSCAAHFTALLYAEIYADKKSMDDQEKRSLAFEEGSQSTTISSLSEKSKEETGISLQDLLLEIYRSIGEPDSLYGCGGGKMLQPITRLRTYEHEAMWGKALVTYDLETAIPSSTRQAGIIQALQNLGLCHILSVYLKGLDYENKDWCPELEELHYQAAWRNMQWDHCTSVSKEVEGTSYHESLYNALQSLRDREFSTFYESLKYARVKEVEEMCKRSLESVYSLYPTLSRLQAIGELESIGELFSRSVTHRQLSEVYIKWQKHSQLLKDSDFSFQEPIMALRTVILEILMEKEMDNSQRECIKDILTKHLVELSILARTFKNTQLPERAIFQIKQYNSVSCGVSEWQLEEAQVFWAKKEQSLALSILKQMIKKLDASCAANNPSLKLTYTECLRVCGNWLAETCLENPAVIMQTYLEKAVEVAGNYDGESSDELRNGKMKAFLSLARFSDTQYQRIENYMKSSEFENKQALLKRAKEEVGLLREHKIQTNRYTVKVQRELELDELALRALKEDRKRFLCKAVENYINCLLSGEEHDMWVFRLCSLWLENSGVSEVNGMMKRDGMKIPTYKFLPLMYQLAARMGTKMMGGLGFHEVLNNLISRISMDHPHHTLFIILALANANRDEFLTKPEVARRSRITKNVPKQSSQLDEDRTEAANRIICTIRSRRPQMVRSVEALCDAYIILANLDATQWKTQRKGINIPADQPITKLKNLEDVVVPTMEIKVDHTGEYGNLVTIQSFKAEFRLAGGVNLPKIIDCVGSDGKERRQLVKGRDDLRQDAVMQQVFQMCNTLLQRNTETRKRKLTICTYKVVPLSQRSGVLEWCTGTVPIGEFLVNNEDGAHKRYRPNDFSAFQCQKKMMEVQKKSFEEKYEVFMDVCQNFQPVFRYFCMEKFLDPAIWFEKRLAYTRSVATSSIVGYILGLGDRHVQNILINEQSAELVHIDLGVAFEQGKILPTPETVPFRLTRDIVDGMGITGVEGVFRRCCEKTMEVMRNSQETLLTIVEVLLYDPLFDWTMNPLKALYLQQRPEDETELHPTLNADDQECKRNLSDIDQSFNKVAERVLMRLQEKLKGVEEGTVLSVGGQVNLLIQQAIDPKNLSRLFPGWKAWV

SMILES | IC50 (Human-derived ATM kinase) [nM] | IC50 [1] [nM] | other results
CCN1CCC2(CC1)C(=O)N(C)c1cnc3ccc(-c4ccc(OCCCN5CCCCC5)nc4)cc3c12 [Example 11] | 2 | 243 | 
CC(=O)N1CCC2(CC1)C(=O)N(C)c1cnc3ccc(-c4ccc(OCCCN(C)C)nc4)cc3c12 [Example 17] | 3 | 352 | 
CN1C(=O)C2(CCOCC2)c2c1cnc1ccc(-c3ccc(OCCCN4CCC(F)CC4)nc3)cc21 [Example 5] | 2 | 92 | 
CC(C)N1CCC2(CC1)C(=O)N(C)c1cnc3ccc(-c4ccc(OCCCN5CCCCC5)nc4)cc3c12 [Example 16] | 4 | 204 | 
CN(C)CCCOc1ccc(-c2ccc3ncc4c(c3c2)C2(CCC(C)(O)CC2)C(=O)N4C)cn1 (centres unmarked) [Example 27] | 1 | 99 | 
CN(C)CCCOc1ccc(-c2ccc3ncc4c(c3c2)C2(CCN(C)CC2)C(=O)N4C)cn1 [Example 9] | 1 | 83 | 
COC(=O)N1CCC2(CC1)C(=O)N(C)c1cnc3ccc(-c4ccc(OCCCN5CCCCC5)nc4)cc3c12 [Example 20] | 2 | 129 | 
CN(C)CCCOc1ccc(-c2ccc3ncc4c(c3c2)C2(CCN(C3CC3)CC2)C(=O)N4C)cn1 [Example 22] | 1 | 14 | 
CC(C)OC(=O)N1CCC2(CC1)C(=O)N(C)c1cnc3ccc(-c4ccc(OCCCN(C)C)nc4)cc3c12 [Example 21] | 7 | 509 | 
CN(C)CCCOc1ccc(-c2ccc3ncc4c(c3c2)C2(CCOCC2)C(=O)N4C2CC2)cn1 [Example 29] | 2 | 269 | 
COC1CCC2(CC1)C(=O)N(C)c1cnc3ccc(-c4ccc(OCCCN(C)C)nc4)cc3c12 (centres unmarked) [Example 25] | 1 | 92 | 
CN1C(=O)C2(CCN(C3CC3)CC2)c2c1cnc1ccc(-c3ccc(OCCCN4CCCCC4)nc3)cc21 [Example 23] | 0.8 | 30 | 
CN(C)CCCOc1ccc(-c2ccc3ncc4c(c3c2)C2(CCN(CC(F)(F)F)CC2)C(=O)N4C)cn1 [Example 13] | 4 | 27 | 
CCN1CCC2(CC1)C(=O)N(C)c1cnc3ccc(-c4ccc(OCCCN(C)C)nc4)cc3c12 [Example 10] | 2 | 80 | 
CN1C(=O)C2(CCOCC2)c2c1cnc1ccc(-c3ccc(OCCCN4CC[C@H](F)C4)nc3)cc21 [Example 3] | 1 | 48 | 
CN1C(=O)C2(CCOCC2)c2c1cnc1ccc(-c3cnn(C)c3)cc21 [Example 2] | 288 | 73 | 
CN(C)CCCOc1ccc(-c2ccc3ncc4c(c3c2)C2(CCNCC2)C(=O)N4C)cn1 [Example 8] | 3 | 99 | 
CN(C)CCCOc1ccc(-c2cc3c4c(cnc3cc2F)N(C2CC2)C(=O)C42CCOCC2)cn1 [Example 34] | 5 | > 1000 | 
CN(C)CCCOc1ccc(-c2ccc3ncc4c(c3c2)C2(CCC(O)CC2)C(=O)N4C)cn1 (centres unmarked) [Example 26] | 1 | 76 | 
CN1C(=O)C2(CCN(CC(F)(F)F)CC2)c2c1cnc1ccc(-c3ccc(OCCCN4CCCCC4)nc3)cc21 [Example 14] | 3 | 46 | 
CN1C(=O)C2(CCOCC2)c2c1cnc1cc(F)c(-c3ccc(OCCCN4CCCCC4)nc3)cc21 [Example 32] | 2 | 561 | Tumor volume (mm^3) ([2]; Day 0 after administration): 125 ± 7 mm^3; Tumor volume (mm^3) ([2]; Day 3 after administration): 138 ± 6 mm^3; Tumor volume (mm^3) ([2]; Day 7 after administration): 229 ± 10 mm^3; Tumor volume (mm^3) ([2]; Day 10 after administration): 359 ± 36 mm^3; Tumor volume (mm^3) ([2]; Day 14 after administration): 644 ± 83 mm^3; Tumor volume (mm^3) ([2]; Day 17 after administration): 974 ± 129 mm^3; Tumor volume (mm^3) ([2]; Day 21 after administration): 1240 ± 157 mm^3; T/C (%) tumor proliferation rate [2]: 73.86%; TGI (%) tumor growth inhibition rate [2]: 27.36%; Tumor volume (mm^3) (Day 26) [2]: 2054 ± 221 mm^3
CN(C)CCCOc1ccc(-c2ccc3ncc4c(c3c2)C2(CCOCC2)C(=O)N4C)cn1 [Example 1] | 0.9 | 78 | 
CC(C)N1CCC2(CC1)C(=O)N(C)c1cnc3ccc(-c4ccc(OCCCN(C)C)nc4)cc3c12 [Example 15] | 2 | 41 | 
COc1cc([C@@H]2c3cc4c(cc3[C@@H](O[C@@H]3O[C@@H]5CO[C@@H](C)O[C@H]5[C@H](O)[C@H]3O)[C@H]3COC(=O)[C@H]23)OCO4)cc(OC)c1O [Etoposide, etoposide, reference compound] |  |  | Tumor volume (mm^3) ([2]; Day 0 after administration): 125 ± 8 mm^3; Tumor volume (mm^3) ([2]; Day 3 after administration): 132 ± 11 mm^3; Tumor volume (mm^3) ([2]; Day 7 after administration): 259 ± 37 mm^3; Tumor volume (mm^3) ([2]; Day 10 after administration): 364 ± 47 mm^3; Tumor volume (mm^3) ([2]; Day 14 after administration): 552 ± 66 mm^3; Tumor volume (mm^3) ([2]; Day 17 after administration): 851 ± 84 mm^3; Tumor volume (mm^3) ([2]; Day 21 after administration): 1021 ± 112 mm^3; T/C (%) tumor proliferation rate [2]: 59.93%; TGI (%) tumor growth inhibition rate [2]: 41.95%; Tumor volume (mm^3) (Day 26) [2]: 1667 ± 193 mm^3

More lines, in order of falling IC50 (Human-derived ATM kinase), values ahead:

IC50 (Human-derived ATM kinase) [nM] | IC50 [1] [nM] | SMILES | other results
63 | 88 | COCc1ccc(-c2ccc3ncc4c(c3c2)C2(CCOCC2)C(=O)N4C)cn1 [Example 31] | 
12 | > 1000 | CN(C)CCCOc1ccc(-c2cc3c4c(cnc3cc2Cl)N(C)C(=O)C42CCOCC2)cn1 [Example 36] | 
3 | > 1000 | O=C1N(C2CC2)c2cnc3cc(F)c(-c4ccc(OCCCN5CCCCC5)nc4)cc3c2C12CCOCC2 [Example 35] | 
2 | 800 | CN1C(=O)C2(CCOCC2)c2c1cnc1ccc(-c3ccc(OCCCN(C4CC4)C4CC4)nc3)cc21 [Example 6] | 
2 | 334 | CN1C(=O)C2(CCC(C)(O)CC2)c2c1cnc1ccc(-c3ccc(OCCCN4CCCCC4)nc3)cc21 (centres unmarked) [Example 28] | 
2 | 80 | CN1C(=O)C2(CCOCC2)c2c1cnc1ccc(-c3ccc(OCCCN4CCCCC4)nc3)cc21 [Example 24] | 
2 | 26 | CN(C)CCCOc1ccc(-c2ccc3ncc4c(c3c2)C2(CCN(CC(F)F)CC2)C(=O)N4C)cn1 [Example 12] | 
2 | 343 | CN(C)CCCOc1ccc(-c2ccc3ncc4c(c3c2)C2(CCN(C(=O)C3CC3)CC2)C(=O)N4C)cn1 [Example 18] | 
2 | 475 | O=C1N(C2CC2)c2cnc3ccc(-c4ccc(OCCCN5CCCCC5)nc4)cc3c2C12CCOCC2 [Example 30] | 
1 | 593 | CN(C)CCCOc1ccc(-c2cc3c4c(cnc3cc2F)N(C)C(=O)C42CCOCC2)cn1 [Example 33] | 
1 | 62 | CN1C(=O)C2(CCOCC2)c2c1cnc1ccc(-c3ccc(OCCCN4CC[C@@H](F)C4)nc3)cc21 [Example 4] | 
1 | 153 | CN(C)CCCOc1ccc(-c2ccc3ncc4c(c3c2)C2(CCC(F)(F)CC2)C(=O)N4C)cn1 [Example 7] | 
0.8 | 77 | COC(=O)N1CCC2(CC1)C(=O)N(C)c1cnc3ccc(-c4ccc(OCCCN(C)C)nc4)cc3c12 [Example 19] | 

From patent publication US11230549B2, “Quinolino-pyrrolidin-2-one derivative and application thereof” (MEDSHINE DISCOVERY INC., priority 2018, dated 2022)
